Results reported in ChEMBL document CHEMBL5291721, “A preclinical secondary pharmacology resource illuminates target-adverse drug reaction associations of marketed drugs” (Nat Commun, 2023).

Columns and labels:
[1] = target: T1, Alpha-1A adrenergic receptor (Homo sapiens, UniProt P35348)
T1 sequence (P35348 whole entry): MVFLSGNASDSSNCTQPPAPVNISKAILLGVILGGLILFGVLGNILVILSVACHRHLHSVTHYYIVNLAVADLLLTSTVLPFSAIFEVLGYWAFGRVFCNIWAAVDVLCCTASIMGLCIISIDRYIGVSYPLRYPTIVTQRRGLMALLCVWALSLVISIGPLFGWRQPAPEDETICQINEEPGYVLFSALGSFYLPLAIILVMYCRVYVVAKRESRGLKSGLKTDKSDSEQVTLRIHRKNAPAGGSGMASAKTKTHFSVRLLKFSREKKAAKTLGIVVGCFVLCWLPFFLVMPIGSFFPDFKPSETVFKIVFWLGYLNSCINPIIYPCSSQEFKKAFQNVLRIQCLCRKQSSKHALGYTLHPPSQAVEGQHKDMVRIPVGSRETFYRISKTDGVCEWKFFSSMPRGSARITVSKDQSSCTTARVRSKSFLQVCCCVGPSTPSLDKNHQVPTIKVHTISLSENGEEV

[2] = target: Beta-3 adrenergic receptor (Homo sapiens, UniProt P13945)
Sequence of Beta-3 adrenergic receptor (P13945 whole entry): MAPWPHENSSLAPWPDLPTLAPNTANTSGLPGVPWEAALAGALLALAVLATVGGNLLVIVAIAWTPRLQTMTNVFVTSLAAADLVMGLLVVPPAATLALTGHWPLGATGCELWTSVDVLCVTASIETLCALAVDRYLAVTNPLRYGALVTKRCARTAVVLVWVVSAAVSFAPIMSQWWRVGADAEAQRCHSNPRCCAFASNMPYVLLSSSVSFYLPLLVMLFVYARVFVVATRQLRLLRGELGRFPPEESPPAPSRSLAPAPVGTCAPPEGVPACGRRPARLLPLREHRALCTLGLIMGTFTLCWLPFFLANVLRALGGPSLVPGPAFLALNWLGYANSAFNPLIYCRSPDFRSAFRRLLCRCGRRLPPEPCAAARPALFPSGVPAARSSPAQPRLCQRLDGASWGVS

Cannabinoid receptor 1 = Cannabinoid receptor 1 (Homo sapiens, UniProt P21554)
Sequence of Cannabinoid receptor 1 (P21554 whole entry): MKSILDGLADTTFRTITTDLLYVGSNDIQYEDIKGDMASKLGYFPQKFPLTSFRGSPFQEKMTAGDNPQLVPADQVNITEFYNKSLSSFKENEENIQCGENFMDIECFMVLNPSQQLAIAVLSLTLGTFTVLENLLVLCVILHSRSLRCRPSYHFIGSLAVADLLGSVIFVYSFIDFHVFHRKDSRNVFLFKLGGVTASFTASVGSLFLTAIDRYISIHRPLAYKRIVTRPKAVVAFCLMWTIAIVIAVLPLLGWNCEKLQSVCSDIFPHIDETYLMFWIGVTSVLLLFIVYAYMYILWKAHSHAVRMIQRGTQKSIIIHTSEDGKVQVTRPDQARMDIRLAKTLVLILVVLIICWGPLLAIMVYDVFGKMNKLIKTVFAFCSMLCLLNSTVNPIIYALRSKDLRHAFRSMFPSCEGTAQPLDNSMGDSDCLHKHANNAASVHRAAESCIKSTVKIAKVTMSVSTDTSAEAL

[3] = target: 5-hydroxytryptamine receptor 2B (Homo sapiens, UniProt P41595)
Sequence of 5-hydroxytryptamine receptor 2B (P41595 whole entry): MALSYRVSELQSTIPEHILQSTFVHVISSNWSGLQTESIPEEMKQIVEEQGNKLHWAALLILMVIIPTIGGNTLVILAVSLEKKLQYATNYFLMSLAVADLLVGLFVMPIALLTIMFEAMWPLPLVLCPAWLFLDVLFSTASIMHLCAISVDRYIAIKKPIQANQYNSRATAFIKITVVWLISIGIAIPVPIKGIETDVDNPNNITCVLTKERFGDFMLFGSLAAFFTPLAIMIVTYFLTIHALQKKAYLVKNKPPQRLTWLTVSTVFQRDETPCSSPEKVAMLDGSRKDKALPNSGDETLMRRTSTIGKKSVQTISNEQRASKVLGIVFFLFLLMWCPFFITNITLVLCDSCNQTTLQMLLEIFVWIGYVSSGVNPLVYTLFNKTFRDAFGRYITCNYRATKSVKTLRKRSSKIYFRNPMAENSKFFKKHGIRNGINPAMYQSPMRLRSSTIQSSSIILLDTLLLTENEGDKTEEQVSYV

Melanocortin receptor 4 = Melanocortin receptor 4 (Homo sapiens, UniProt P32245)
Sequence of Melanocortin receptor 4 (P32245 whole entry): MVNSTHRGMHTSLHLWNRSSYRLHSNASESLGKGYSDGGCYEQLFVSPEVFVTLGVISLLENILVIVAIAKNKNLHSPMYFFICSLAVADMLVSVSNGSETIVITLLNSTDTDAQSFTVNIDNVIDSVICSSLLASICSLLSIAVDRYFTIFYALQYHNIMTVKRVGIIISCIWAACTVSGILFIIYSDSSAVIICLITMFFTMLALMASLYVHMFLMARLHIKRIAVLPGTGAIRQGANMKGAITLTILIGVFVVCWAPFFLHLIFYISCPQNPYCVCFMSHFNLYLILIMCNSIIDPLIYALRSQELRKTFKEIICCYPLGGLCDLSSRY

Progesterone receptor = target: T2, Progesterone receptor (Homo sapiens, UniProt P06401)
T2 sequence (P06401 whole entry): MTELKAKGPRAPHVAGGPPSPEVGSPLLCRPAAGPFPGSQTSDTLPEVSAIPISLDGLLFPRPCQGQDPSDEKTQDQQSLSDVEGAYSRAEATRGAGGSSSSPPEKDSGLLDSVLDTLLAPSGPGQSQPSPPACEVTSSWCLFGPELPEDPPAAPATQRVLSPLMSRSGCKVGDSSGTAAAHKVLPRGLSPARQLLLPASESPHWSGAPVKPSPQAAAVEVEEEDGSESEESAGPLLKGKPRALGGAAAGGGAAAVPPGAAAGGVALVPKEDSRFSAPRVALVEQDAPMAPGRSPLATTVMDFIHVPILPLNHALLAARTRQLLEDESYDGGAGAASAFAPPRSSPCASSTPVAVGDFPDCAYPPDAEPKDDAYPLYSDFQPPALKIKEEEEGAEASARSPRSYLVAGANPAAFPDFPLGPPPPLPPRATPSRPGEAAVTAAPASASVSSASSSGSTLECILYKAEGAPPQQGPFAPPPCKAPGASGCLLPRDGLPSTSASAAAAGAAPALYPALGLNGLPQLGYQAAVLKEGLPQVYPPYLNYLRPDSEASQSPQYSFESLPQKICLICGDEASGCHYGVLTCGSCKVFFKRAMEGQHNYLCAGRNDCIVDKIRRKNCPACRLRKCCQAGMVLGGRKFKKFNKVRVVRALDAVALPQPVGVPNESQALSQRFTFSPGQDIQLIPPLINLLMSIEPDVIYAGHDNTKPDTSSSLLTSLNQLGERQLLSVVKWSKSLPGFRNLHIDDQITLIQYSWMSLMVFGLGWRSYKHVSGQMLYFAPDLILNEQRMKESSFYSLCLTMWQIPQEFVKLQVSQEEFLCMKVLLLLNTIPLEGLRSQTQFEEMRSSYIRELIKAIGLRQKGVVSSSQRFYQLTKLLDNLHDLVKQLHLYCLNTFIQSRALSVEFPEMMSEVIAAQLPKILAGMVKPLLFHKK

[4] = target: T3, Alpha-2B adrenergic receptor (Homo sapiens, UniProt P18089)
T3 sequence (P18089 whole entry): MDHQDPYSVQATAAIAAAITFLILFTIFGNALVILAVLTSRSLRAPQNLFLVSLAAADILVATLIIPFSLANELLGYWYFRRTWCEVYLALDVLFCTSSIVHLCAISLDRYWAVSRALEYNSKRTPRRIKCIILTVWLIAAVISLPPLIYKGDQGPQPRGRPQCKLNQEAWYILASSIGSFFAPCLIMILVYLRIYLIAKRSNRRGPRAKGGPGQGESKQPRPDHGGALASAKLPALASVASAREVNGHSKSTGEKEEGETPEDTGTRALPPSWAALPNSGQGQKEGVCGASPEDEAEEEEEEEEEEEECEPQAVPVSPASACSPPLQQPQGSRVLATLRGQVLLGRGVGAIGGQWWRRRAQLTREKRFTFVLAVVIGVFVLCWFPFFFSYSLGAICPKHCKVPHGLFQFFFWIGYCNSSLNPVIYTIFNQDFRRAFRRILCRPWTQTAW

[5] = target: Sodium-dependent serotonin transporter (Homo sapiens, UniProt P31645)
Sequence of Sodium-dependent serotonin transporter (P31645 whole entry): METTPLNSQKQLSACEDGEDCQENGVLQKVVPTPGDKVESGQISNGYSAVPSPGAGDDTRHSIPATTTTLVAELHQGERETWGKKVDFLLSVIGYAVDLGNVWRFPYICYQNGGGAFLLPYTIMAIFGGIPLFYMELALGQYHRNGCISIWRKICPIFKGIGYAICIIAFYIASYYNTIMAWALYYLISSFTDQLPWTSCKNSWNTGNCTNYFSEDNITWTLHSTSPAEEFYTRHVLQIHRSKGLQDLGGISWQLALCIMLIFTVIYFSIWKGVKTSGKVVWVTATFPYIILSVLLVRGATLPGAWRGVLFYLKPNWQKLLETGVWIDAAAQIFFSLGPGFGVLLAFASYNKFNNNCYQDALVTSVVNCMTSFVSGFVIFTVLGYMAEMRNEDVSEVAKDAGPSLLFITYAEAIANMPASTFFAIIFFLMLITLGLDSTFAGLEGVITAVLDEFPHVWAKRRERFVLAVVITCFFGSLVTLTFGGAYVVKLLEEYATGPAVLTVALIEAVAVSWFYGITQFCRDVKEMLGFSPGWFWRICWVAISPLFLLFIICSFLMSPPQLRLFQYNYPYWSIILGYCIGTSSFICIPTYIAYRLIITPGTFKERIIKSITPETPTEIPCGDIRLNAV

[6] = target: T4, Gamma-aminobutyric acid receptor subunit alpha-1/alpha-2/beta-2/gamma-2 (Homo sapiens, UniProt P14867+P18507+P47869+P47870); format: functional, cell-based
T4 sequence (P14867 whole entry): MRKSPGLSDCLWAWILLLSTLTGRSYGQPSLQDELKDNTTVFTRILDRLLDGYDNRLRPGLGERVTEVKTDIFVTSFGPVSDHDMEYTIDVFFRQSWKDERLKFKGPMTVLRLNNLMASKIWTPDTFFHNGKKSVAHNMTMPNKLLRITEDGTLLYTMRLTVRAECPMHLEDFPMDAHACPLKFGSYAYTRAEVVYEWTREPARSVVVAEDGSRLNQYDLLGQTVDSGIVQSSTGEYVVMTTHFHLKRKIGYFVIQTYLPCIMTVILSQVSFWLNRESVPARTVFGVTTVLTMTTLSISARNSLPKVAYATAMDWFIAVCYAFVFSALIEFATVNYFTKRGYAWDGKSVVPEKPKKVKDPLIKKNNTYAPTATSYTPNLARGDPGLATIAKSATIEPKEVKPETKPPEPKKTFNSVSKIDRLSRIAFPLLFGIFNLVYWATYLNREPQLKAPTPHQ
T4 sequence (P47870 whole entry): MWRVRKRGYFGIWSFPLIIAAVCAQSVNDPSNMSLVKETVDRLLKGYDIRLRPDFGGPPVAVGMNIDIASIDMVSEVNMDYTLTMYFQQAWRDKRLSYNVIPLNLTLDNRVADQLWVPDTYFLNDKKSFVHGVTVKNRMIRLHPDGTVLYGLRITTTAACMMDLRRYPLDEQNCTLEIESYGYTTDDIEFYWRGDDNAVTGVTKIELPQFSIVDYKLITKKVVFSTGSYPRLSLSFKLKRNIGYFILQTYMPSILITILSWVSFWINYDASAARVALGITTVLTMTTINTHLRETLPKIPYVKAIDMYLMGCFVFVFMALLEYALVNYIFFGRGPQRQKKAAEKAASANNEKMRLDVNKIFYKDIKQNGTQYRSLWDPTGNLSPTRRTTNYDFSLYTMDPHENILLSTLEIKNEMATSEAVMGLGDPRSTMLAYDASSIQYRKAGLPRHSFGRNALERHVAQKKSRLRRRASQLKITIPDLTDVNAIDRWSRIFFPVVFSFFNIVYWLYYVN
T4 sequence (P18507 whole entry): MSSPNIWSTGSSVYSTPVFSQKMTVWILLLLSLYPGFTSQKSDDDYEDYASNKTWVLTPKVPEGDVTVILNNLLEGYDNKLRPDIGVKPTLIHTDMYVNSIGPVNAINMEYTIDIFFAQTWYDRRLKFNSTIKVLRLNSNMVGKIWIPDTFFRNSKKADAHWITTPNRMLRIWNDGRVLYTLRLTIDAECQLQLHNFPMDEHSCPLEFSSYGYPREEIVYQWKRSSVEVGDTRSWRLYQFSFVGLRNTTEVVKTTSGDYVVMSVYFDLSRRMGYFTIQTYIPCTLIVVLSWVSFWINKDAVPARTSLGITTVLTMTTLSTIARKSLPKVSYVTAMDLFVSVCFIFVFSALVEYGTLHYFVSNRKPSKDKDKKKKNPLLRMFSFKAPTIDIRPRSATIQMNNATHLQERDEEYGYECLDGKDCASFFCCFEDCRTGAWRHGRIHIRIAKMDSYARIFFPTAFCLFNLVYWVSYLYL
T4 sequence (P47869 whole entry): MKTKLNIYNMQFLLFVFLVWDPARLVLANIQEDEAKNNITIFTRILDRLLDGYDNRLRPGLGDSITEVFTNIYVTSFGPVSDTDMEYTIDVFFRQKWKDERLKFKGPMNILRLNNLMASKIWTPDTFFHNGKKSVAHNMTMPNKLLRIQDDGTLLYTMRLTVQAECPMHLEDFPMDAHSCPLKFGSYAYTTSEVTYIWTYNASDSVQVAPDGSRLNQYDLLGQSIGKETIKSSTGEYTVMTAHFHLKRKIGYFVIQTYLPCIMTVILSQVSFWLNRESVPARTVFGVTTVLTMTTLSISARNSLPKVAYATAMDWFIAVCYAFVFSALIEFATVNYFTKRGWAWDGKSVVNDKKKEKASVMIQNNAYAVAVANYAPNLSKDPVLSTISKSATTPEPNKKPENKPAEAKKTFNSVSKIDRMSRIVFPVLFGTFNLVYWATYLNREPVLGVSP

[7] = target: T4, Gamma-aminobutyric acid receptor subunit alpha-1/alpha-2/beta-2/gamma-2; format: functional, cell-based; remark: listed apart in the source
[8] = target: T5, Peroxisome proliferator-activated receptor gamma (Homo sapiens, UniProt P37231); format: functional
T5 sequence (P37231 whole entry): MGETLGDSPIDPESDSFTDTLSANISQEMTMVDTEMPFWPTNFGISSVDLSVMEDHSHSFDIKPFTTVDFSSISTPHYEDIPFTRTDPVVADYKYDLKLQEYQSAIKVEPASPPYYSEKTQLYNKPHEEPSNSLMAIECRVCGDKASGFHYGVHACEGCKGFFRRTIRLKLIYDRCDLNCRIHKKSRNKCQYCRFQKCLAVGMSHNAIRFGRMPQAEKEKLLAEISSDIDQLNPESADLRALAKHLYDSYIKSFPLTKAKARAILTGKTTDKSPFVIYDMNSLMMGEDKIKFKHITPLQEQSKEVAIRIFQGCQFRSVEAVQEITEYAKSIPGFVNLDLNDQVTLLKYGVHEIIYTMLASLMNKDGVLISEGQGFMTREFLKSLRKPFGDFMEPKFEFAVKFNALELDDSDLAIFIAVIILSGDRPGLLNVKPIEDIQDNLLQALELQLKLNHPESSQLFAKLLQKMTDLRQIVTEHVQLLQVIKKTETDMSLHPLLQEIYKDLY
Further: assay procedure not described here.

CC1(C)S[C@@H]2[C@H](NC(=O)[C@H](N)c3ccc(O)cc3)C(=O)N2[C@H]1C(=O)O [AMOXICILLIN]
AC50 [1]: > 10 µM | AC50 [2]: > 30 µM | AC50 (Cannabinoid receptor 1): > 30 µM | AC50 [3]: > 10 µM | AC50 (Melanocortin receptor 4): > 30 µM | AC50 (Progesterone receptor): > 30 µM

O=C1CN2Cc3c(ccc(Cl)c3Cl)N=C2N1 [ANAGRELIDE]
AC50 [1]: > 10 µM | AC50 [4]: > 10 µM | AC50 (Cannabinoid receptor 1): > 10 µM | AC50 (Melanocortin receptor 4): > 30 µM | AC50 (Progesterone receptor): > 30 µM | AC50 [5]: > 30 µM

CNCC[C@@H](Oc1ccccc1C)c1ccccc1 [ATOMOXETINE]
AC50 [4]: 23 µM

CCc1oc2ccccc2c1C(=O)c1cc(Br)c(O)c(Br)c1 [BENZBROMARONE]
AC50 [1]: > 10 µM | AC50 (Cannabinoid receptor 1): > 10 µM | AC50 [6]: > 30 µM | AC50 (Melanocortin receptor 4): > 30 µM | AC50 (Progesterone receptor): > 30 µM

C=C(C)[C@@H]1CCC(C)=C[C@H]1c1c(O)cc(CCCCC)cc1O [CANNABIDIOL]
AC50 [4]: > 30 µM | AC50 [5]: > 30 µM

[H]/N=C(\N/C(=N/[H])NCCCCCCNC(=N)NC(=N)Nc1ccc(Cl)cc1)Nc1ccc(Cl)cc1 [CHLORHEXIDINE]
AC50 [1]: 0.607 µM | AC50 [4]: 2.4 µM | AC50 (Cannabinoid receptor 1): 3.07 µM | AC50 [3]: 0.683 µM | AC50 (Melanocortin receptor 4): 0.271 µM | AC50 [5]: 1 µM

Clc1cccc(Cl)c1N=C1NCCN1 [CLONIDINE]
AC50 [2]: > 30 µM | AC50 (Cannabinoid receptor 1): > 10 µM | AC50 [3]: > 10 µM | AC50 (Melanocortin receptor 4): > 30 µM | AC50 (Progesterone receptor): > 30 µM

CN1C[C@H](C(=O)N[C@]2(C)O[C@@]3(O)[C@@H]4CCCN4C(=O)[C@H](Cc4ccccc4)N3C2=O)C[C@@H]2c3cccc4[nH]cc(c34)C[C@H]21 [DIHYDROERGOTAMINE]
AC50 [1]: 0.0376 µM | AC50 [2]: 0.26 µM | AC50 (Cannabinoid receptor 1): > 10 µM | AC50 [3]: 0.0638 µM | AC50 (Melanocortin receptor 4): > 30 µM | AC50 (Progesterone receptor): > 30 µM

CNCC[C@H](Oc1cccc2ccccc12)c1cccs1 [DULOXETINE]
AC50 [4]: 3.9 µM | AC50 (Cannabinoid receptor 1): > 10 µM | AC50 (Melanocortin receptor 4): 17.8 µM | AC50 (Progesterone receptor): > 30 µM

C#Cc1cccc(Nc2ncnc3cc(OCCOC)c(OCCOC)cc23)c1 [ERLOTINIB]
AC50 [4]: > 30 µM | AC50 [6]: > 30 µM | AC50 [7]: > 30 µM | AC50 [8]: > 30 µM

CC1(C)O[C@@H]2C[C@H]3[C@@H]4C[C@H](F)C5=CC(=O)C=C[C@]5(C)[C@H]4[C@@H](O)C[C@]3(C)[C@]2(C(=O)CO)O1 [FLUNISOLIDE]
AC50 [6]: > 30 µM | AC50 [8]: > 30 µM

CCC(=O)O[C@@H](O[P@](=O)(CCCCc1ccccc1)CC(=O)N1C[C@H](C2CCCCC2)C[C@H]1C(=O)O)C(C)C [FOSINOPRIL]
AC50 [4]: > 30 µM | AC50 [6]: > 30 µM | AC50 [7]: > 30 µM

Cc1cnc(NC(=O)C2=C(O)c3ccccc3S(=O)(=O)N2C)s1 [MELOXICAM]
AC50 [1]: > 10 µM | AC50 [2]: > 30 µM | AC50 (Cannabinoid receptor 1): > 10 µM | AC50 [3]: > 10 µM | AC50 (Melanocortin receptor 4): > 30 µM | AC50 (Progesterone receptor): > 30 µM

CC(=O)/N=c1/sc(S(N)(=O)=O)nn1C [METHAZOLAMIDE]
AC50 [1]: > 10 µM | AC50 [4]: > 10 µM | AC50 (Cannabinoid receptor 1): > 10 µM | AC50 (Melanocortin receptor 4): > 10 µM | AC50 [5]: > 10 µM

CC[C@@H](CO)NC(=O)[C@@H]1C=C2c3cccc4[nH]cc(c34)C[C@H]2N(C)C1 [METHYLERGONOVINE]
AC50 [1]: 12 µM | AC50 [3]: 0.0037 µM
